In patent US20190322676A1, “CERAMIDE GALACTOSYLTRANSFERASE INHIBITORS FOR THE TREATMENT OF DISEASE” (BioMarin Pharmaceutical Inc., priority 2016, published 2019) one finds IC50 data, which are given here for ten compounds.

pIC50: −log10 of the molar value. Structures can show the parent of a compound that is named as a salt.

The target of the test is T1, human CGT (ceramide galactosyltransferase), CHO/CGT lysate (Homo sapiens, UniProt Q16880).
T1 construct: Full-length human CGT cDNA was cloned into the BamH1/Xho1 site of pcDNA3.1 (+); expressed in transfected cells; host or cells: Chinese hamster ovary (CHO) cells; lysate prepared with M-PER
T1 sequence (Q16880 21-541): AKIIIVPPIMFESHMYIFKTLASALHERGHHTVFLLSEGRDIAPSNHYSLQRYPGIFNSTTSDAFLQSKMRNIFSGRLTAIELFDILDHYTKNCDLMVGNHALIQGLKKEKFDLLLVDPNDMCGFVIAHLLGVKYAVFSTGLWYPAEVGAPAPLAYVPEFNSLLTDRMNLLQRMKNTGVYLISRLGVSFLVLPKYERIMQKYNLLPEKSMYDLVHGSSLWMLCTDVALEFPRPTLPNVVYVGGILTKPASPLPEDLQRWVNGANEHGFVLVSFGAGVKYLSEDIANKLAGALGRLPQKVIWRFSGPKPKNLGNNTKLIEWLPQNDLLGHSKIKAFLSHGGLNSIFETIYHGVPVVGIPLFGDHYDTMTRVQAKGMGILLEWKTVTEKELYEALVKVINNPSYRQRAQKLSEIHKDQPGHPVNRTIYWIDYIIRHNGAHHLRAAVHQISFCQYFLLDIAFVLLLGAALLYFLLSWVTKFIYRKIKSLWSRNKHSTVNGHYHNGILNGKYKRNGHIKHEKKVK
In words: CGT enzyme assay, RapidFire/MS/MS readout (Table 1 ranges with one asterisk *). The format is biochemical. Conditions: RapidFire method (range with one asterisk *). As to the method:
Full-length human CGT cDNA was cloned into the BamH1/Xho1 site of pcDNA3.1 (+) mammalian expression vector (V90-20, Invitrogen, Carlsbad, Calif.) and the plasmid was transfected into Chinese hamster ovary (CHO) cells. Lysate was prepared using M-PER (Mammalian Protein Extraction Reagent, ThermoFisher Scientific, Grand Island, N.Y.) in the presence of a protease inhibitor cocktail (P8340, Sigma, Saint Louis, Mo.). Each 100 mm dish (100% confluent, approximately 1×10^7 cells) was lysed with 250 μL of M-PER containing protease inhibitors. Protein concentration was determined using a Pierce BCA protein assay kit (ThermoFisher Scientific). Four micrograms of CHO/CGT lysate was incubated with various concentrations of a compound (0.001 μM-50 μM) in 10 mM HEPES (pH 7.2) containing 35 μM dioleoylphosphatidylcholine, 5 mM MgCl2, 5 mM MnCl2, 1% BSA, 15 mM KCl, 1 mM EGTA, 8 mM CHAPS, 10 μM C6-NBD-dihydro-ceramide and 17.5 μM UDP-galactose in a final reaction volume of 20 μL at 37° C. for 1 hour. The final concentration of DMSO was 0.5% in both compound-treated and mock-treated samples. Tween 80 (0.01%) was optionally added to the reaction mixture to help solubilize the compounds. Each individual reaction was diluted with 80 μL of methanol:acetronitrile (1:3) containing 5 μM N-docdecanoyl-NBD-galactosylceramide (internal standard) to stop the reaction. 200 μL H2O:acetonitile (1:1) was added to precipitate the protein. After sufficient mixing, the plates were centrifuged at 2469 g for 38 minutes, 200 μL of supernatant was transferred to a LC/MS 96-deep well plate and a second spin was performed at 2469 g for 10 minutes. The final supernatant was injected in triplicate for RapidFire/MS/MS analysis.
Quantitative Analysis Using the RapidFire/MS/MS Method:
The quantitative analysis of C6-NBD-dihydro-ceramide and C6-NBD-dihydro-galactosylceramide was performed on a Rapid Fire 360 high-throughput mass spectrometry system (Agilent Technologies, Palo Alto, Calif.) coupled with a API4000^+ triple quadrupole mass spectrometer (Applied Biosystems, Concord, Ontario, Canada). RapidFire software packages, including RapidFire Control panel, RapidFire UI and RapidFire Integrator (Agilent Technologies), were used to control the RapidFire instrument and to process data. Analyst 1.6.2 software packages (Applied Biosystems) were used to control the MS system and acquire MS data. […] of sample was loaded on a micro-scale C4 solid-phase extraction (SPE) cartridge (Agilent Technologies) and salts were removed using water supplemented with 0.1% formic acid at the flow rate of 1.5 mL/min for 3 sec. C6-NBD-dihydro-ceramide and C6-NBD-dihydro-galactosylceramide were co-eluted into the mass spectrometer using acetonitrile containing 0.1% formic acid at the flow rate of 1.0 mL/min for 3 sec. The total cycle time of one injection was 8 secs. The MS/MS detection was performed in ESI negative mode. The mass transition of C6-NBD-dihydro-galactosylceramide was m/z 752.6→678.6 using a −40 V collision energy, the mass transition of C6-NBD-dihydro-ceramide was m/z 590.6→115.8 using a −40 V collision energy and the mass transition of N-docdecanoyl-NBD-galactosylceramide was m/z 820.9→746.3 using a −45 V collision energy.
The C6-NBD-dihydro-galactosylceramide reading was normalized first by dividing the peak area of C6-NBD-dihydro-galactosylceramide by the peak area of the internal standard, N-docdecanoyl-NBD-galactosylceramide. IC50 values (see Table 1, where data ranges with one asterix (*) correspond to analysis using the RapidFire/MS/MS method, and data ranges with two asterixes (**) correspond to analysis using the RapidFire/MS/MS method with 0.01% Tween added) were generated from sigmoidal dose-response curves (variable slope) with GraphPad Prism software (GraphPad Software, Inc., San Diego, Calif.) using the normalized peak areas of C6-NBD-dihydro-galactosylceramide or the percent inhibition of C6-NBD-dihydro-galactosylceramide accumulation relative to DMSO control. […]

Compound `COc1cc(C(F)(F)[C@@H](NS(=O)(=O)c2ccc3cc(OC4CCCC4)ccc3c2)C(=O)N2C3CCC2CC(N)C3)ccc1Cl` (single isomer, unassigned) [Compound 124-2] showed a pIC50 of 5.00 to 6.00.
Under `NC1CC2CCC(C1)N2C(=O)[C@@H](NS(=O)(=O)c1ccc2cc(OC3CCCC3)ccc2c1)C(F)(F)c1ccc(Cl)cc1` (stereo partly drawn) [Compound 28-1, N-((2R)-3-(3-amino-8-azabicyclo[3.2.1]octan-8-yl)-1-(4-chlorophenyl)-1,1-difluoro-3-oxopropan-2-yl)-6-(cyclopentyloxy)naphthalene-2-sulfonamide trifluoroacetate] stands greater than 6.00.
In the case of `NC1CC2CCC(C1)N2C(=O)[C@H](NS(=O)(=O)c1ccc2cc(OC3CCCC3)ccc2c1)C(F)(F)c1ccc(Cl)cc1` (stereo partly drawn) [Compound 28-2, N-((2S)-3-(3-amino-8-azabicyclo[3.2.1]octan-8-yl)-1-(4-chlorophenyl)-1,1-difluoro-3-oxopropan-2-yl)-6-(cyclopentyloxy)naphthalene-2-sulfonamide trifluoroacetate], the pIC50 was 5.00 to 6.00.
`NC1CC2CCC(C1)N2C(=O)[C@@H](NS(=O)(=O)c1ccc(OCC2CCCCC2)cc1)C(F)(F)c1ccc(Cl)cc1` (stereo partly drawn) [Compound 29-1, N-((2R)-3-(3-amino-8-azabicyclo[3.2.1]octan-8-yl)-1-(4-chlorophenyl)-1,1-difluoro-3-oxopropan-2-yl)-4-(cyclohexylmethoxy)benzenesulfonamide trifluoroacetate] had a negative logarithm of the IC50 (pIC50) greater than 6.00.
The value for `NC1CC2CCC(C1)N2C(=O)[C@H](NS(=O)(=O)c1ccc(OCC2CCCCC2)cc1)C(F)(F)c1ccc(Cl)cc1` (stereo partly drawn) [Compound 29-2, N-((2S)-3-(3-amino-8-azabicyclo[3.2.1]octan-8-yl)-1-(4-chlorophenyl)-1,1-difluoro-3-oxopropan-2-yl)-4-(cyclohexylmethoxy) benzenesulfonamide trifluoroacetate] was 5.00 to 6.00.
The value for `NC1CCN(C(=O)[C@@H](NS(=O)(=O)c2ccc(OCC3CCCCC3)cc2)C(F)(F)c2ccc(Cl)cc2)CC1` [Compound 30-1, (R)—N-(3-(4-aminopiperidin-1-yl)-1-(4-chlorophenyl)-1,1-difluoro-3-oxopropan-2-yl)-4-(cyclohexylmethoxy)benzenesulfonamide trifluoroacetate] was 5.00 to 6.00; that for `NC1CCN(C(=O)[C@H](NS(=O)(=O)c2ccc(OCC3CCCCC3)cc2)C(F)(F)c2ccc(Cl)cc2)CC1` [Compound 30-2, (S)—N-(3-(4-aminopiperidin-1-yl)-1-(4-chlorophenyl)-1,1-difluoro-3-oxopropan-2-yl)-4-(cyclohexylmethoxy)benzenesulfonamide trifluoroacetate] was 4.52 to 5.00; that for `CC(C)Oc1ccc2cc(S(=O)(=O)N[C@H](C(=O)N3C4CCC3CC(N)C4)C(F)(F)c3ccc(-c4ccccc4)cc3)ccc2c1` (stereo partly drawn) [Compound 31-1, N-((2R)-1-([1,1′-biphenyl]-4-yl)-3-(3-amino-8-azabicyclo[3.2.1]octan-8-yl)-1,1-difluoro-3-oxopropan-2-yl)-6-isopropoxynaphthalene-2-sulfonamide trifluoroacetate] was 5.00 to 6.00.
The value for `CC(C)Oc1ccc2cc(S(=O)(=O)N[C@@H](C(=O)N3C4CCC3CC(N)C4)C(F)(F)c3ccc(-c4ccccc4)cc3)ccc2c1` (stereo partly drawn) [Compound 31-2, N-((2S)-1-([1,1′-biphenyl]-4-yl)-3-(3-amino-8-azabicyclo[3.2.1]octan-8-yl)-1,1-difluoro-3-oxopropan-2-yl)-6-isopropoxynaphthalene-2-sulfonamide trifluoroacetate] was 4.52 to 5.00; that for `NC1CCN(C(=O)[C@@H](NS(=O)(=O)c2ccc3cc(OC4CCCC4)ccc3c2)C(F)(F)c2ccc(Br)cc2)CC1` [Compound 32-1, (R)—N-(3-(4-aminopiperidin-1-yl)-1-(4-bromophenyl)-1,1-difluoro-3-oxopropan-2-yl)-6-(cyclopentyloxy)naphthalene-2-sulfonamide trifluoroacetate] was greater than 6.00.

The term pIC50 denotes the negative decadic logarithm of the IC50, by convention in mol/L. Read a low pIC50 as a high IC50.
